# According to patent publication US11596644B2, “Method for treating post-prandial hypoglycemia” (AVOLYNT, priority 2018, dated 2023):
# Tests used:
# [1] = test system: normal Sprague Dawley rats; assay: Mixed carbohydrate tolerance test in normal rats; type: in vivo, rat
# Procedure: Study on normal rats. The efficacy of mizagliflozin (decreasing plasma glucose levels) in normal Sprague Dawley rats was determined in a mixed carbohydrate tolerance test. Normal rats were fasted for 16 hours and then given an oral loading dose of 2.0 g/kg of mixed carbohydrate (soluble starch:sucrose:lactose monohydrate=6:3:1). Mizagliflozin (KGA-3235 sebacate), or water as the vehicle control, was then administered as a single oral dose to groups of male rats (n=8/group) at doses of 0.03, 0.1, 0.3, and 1 mg/kg. Voglibose, a glucosidase inhibitor similar to acarbose, was used as a positive control and was administered as a single oral dose to male rats (n=8/group) at dose levels of 0.1, 0.3 and 1 mg/kg. Blood samples were collected just prior to loading with mixed carbohydrate and at 0.5, 1, 2, 3, 4, and 6 hours after loading.
# [2] = test system: healthy adult male volunteers; assay: Single dose study in humans, pharmacodynamic parameters after breakfast; type: in vivo, human
# Procedure: Single dose study in humans. A single oral dose of 2 mg, 5 mg, 10 mg, 20 mg, 40 mg, 80 mg, and 160 mg of mizagliflozin were administered to healthy adult male volunteers by a placebo-controlled, randomized, double-blind method. The single dose was administered orally immediately before breakfast with approximately 200 mL of water after fasting for at least 10 hours. Pharmacodynamic effect parameters (blood glucose level, insulin, GLP-1, and gastric inhibitory polypeptide (GIP)) were measured. Concentrations at each time point were measured, and summary statistics and coefficient variation (CV) were calculated for AUC0-t; t was up to 6 hours postdose. The time points were: before administration and 0.5, 1, 1.5, 2, 3, 4, 5, and 6 hours after administration. Blood glucose level and insulin were measured to evaluate in an exploratory manner the inhibitory effect on postprandial hyperglycemia. GLP-1 and GIP were measured to evaluate in an exploratory manner the incretin secretory action.
# [3] = single oral dose 2 mg before breakfast
# [4] = single oral dose 5 mg before breakfast
# [5] = single oral dose 10 mg before breakfast
# [6] = single oral dose 20 mg before breakfast
# [7] = single oral dose 40 mg before breakfast
# [8] = single oral dose 80 mg before breakfast
# [9] = single oral dose 160 mg before breakfast
smiles,measurement,setting,value
"Cc1cc(OCCCNCC(C)(C)C(N)=O)ccc1Cc1c(O[C@@H]2O[C@H](CO)[C@@H](O)[C@H](O)[C@H]2O)n[nH]c1C(C)C [mizagliflozin, 3-(3-{4-[3-(β-D-glucopyranosyloxy)-5-isopropyl-1H-pyrazol-4-ylmethyl-]-3-methylphenoxy}propylamino)-2,2-dimethylpropionamide]",ED50,"[1]; Rattus norvegicus, read-out: ED50 calculated from mean ΔAUC0-1 h (% of control), mixed carbohydrate 2.0 g/kg, single oral dose",0.13 mg/kg
same,ΔAUC0-1 h of plasma glucose versus vehicle control,[1]; mixed carbohydrate 2.0 g/kg,significantly lowered
same,AUC 0-6 GIP,[2]; [3],818.5 pg·h/mL
same,AUC 0-6 GLP-1 (active),[2]; [3],23.7 pmol·h/L
same,AUC 0-6 Insulin,[2]; [3],123.2 uU*h/ml
same,AUC 0-6 glucose,[2]; [3],628.3 mg·h/dL
same,GIP (peak),[2]; [3],183.6 pg/mL
same,GLP-1 (active) (peak),[2]; [3],6.4 pmol/L
same,Glucose (peak),[2]; [3],128.7 mg/dL
same,Insulin (peak),[2]; [3],40.38 uU/ml
same,"Time (h) to peak, GIP",[2]; [3],4 h
same,"Time (h) to peak, GLP-1 (active)",[2]; [3],0.5 h
same,"Time (h) to peak, glucose",[2]; [3],1.5 h
same,"Time (h) to peak, insulin",[2]; [3],1.5 h
same,AUC 0-6 GIP,[2]; [4],856.9 pg·h/mL
same,AUC 0-6 GLP-1 (active),[2]; [4],28.5 pmol·h/L
same,AUC 0-6 Insulin,[2]; [4],140.7 uU*h/ml
same,AUC 0-6 glucose,[2]; [4],631.3 mg·h/dL
same,GIP (peak),[2]; [4],194.5 pg/mL
same,GLP-1 (active) (peak),[2]; [4],6.1 pmol/L
same,Glucose (peak),[2]; [4],130.3 mg/dL
same,Insulin (peak),[2]; [4],47.1 uU/ml
same,"Time (h) to peak, GIP",[2]; [4],3 h
same,"Time (h) to peak, GLP-1 (active)",[2]; [4],0.5 h
same,"Time (h) to peak, glucose",[2]; [4],1 h
same,"Time (h) to peak, insulin",[2]; [4],1.5 h
same,AUC 0-6 GIP,[2]; [5],945.7 pg·h/mL
same,AUC 0-6 GLP-1 (active),[2]; [5],41.5 pmol·h/L
same,AUC 0-6 Insulin,[2]; [5],120.4 uU*h/ml
same,AUC 0-6 glucose,[2]; [5],661.9 mg·h/dL
same,GIP (peak),[2]; [5],252.3 pg/mL
same,GLP-1 (active) (peak),[2]; [5],8.7 pmol/L
same,Glucose (peak),[2]; [5],143.8 mg/dL
same,Insulin (peak),[2]; [5],39 uU/ml
same,"Time (h) to peak, GIP",[2]; [5],4 h
same,"Time (h) to peak, GLP-1 (active)",[2]; [5],0.5 h
same,"Time (h) to peak, glucose",[2]; [5],1.5 h
same,"Time (h) to peak, insulin",[2]; [5],2 h
same,AUC 0-6 GIP,[2]; [6],783.9 pg·h/mL
same,AUC 0-6 GLP-1 (active),[2]; [6],55.8 pmol·h/L
same,AUC 0-6 Insulin,[2]; [6],89.7 uU*h/ml
same,AUC 0-6 glucose,[2]; [6],612.9 mg·h/dL
same,GIP (peak),[2]; [6],216.7 pg/mL
same,GLP-1 (active) (peak),[2]; [6],11.6 pmol/L
same,Glucose (peak),[2]; [6],113.7 mg/dL
same,Insulin (peak),[2]; [6],25.9 uU/ml
same,"Time (h) to peak, GIP",[2]; [6],4 h
same,"Time (h) to peak, GLP-1 (active)",[2]; [6],1.5 h
same,"Time (h) to peak, glucose",[2]; [6],2 h
same,"Time (h) to peak, insulin",[2]; [6],3 h
same,AUC 0-6 GIP,[2]; [7],591.4 pg·h/mL
same,AUC 0-6 GLP-1 (active),[2]; [7],32.6 pmol·h/L
same,AUC 0-6 Insulin,[2]; [7],99.7 uU*h/ml
same,AUC 0-6 glucose,[2]; [7],629.1 mg·h/dL
same,GIP (peak),[2]; [7],166.7 pg/mL
same,GLP-1 (active) (peak),[2]; [7],7.5 pmol/L
same,Glucose (peak),[2]; [7],130.3 mg/dL
same,Insulin (peak),[2]; [7],33.8 uU/ml
same,"Time (h) to peak, GIP",[2]; [7],4 h
same,"Time (h) to peak, GLP-1 (active)",[2]; [7],0.5 h
same,"Time (h) to peak, glucose",[2]; [7],1.5 h
same,"Time (h) to peak, insulin",[2]; [7],1.5 h
same,AUC 0-6 GIP,[2]; [8],621.5 pg·h/mL
same,AUC 0-6 GLP-1 (active),[2]; [8],24.1 pmol·h/L
same,AUC 0-6 Insulin,[2]; [8],70.9 uU*h/ml
same,AUC 0-6 glucose,[2]; [8],611.92 mg·h/dL
same,GIP (peak),[2]; [8],161.6 pg/mL
same,GLP-1 (active) (peak),[2]; [8],5.5 pmol/L
same,Glucose (peak),[2]; [8],116 mg/dL
same,Insulin (peak),[2]; [8],20.5 uU/ml
same,"Time (h) to peak, GIP",[2]; [8],5 h
same,"Time (h) to peak, GLP-1 (active)",[2]; [8],2 h
same,"Time (h) to peak, glucose",[2]; [8],3 h
same,"Time (h) to peak, insulin",[2]; [8],3 h
same,AUC 0-6 GIP,[2]; [9],445.5 pg·h/mL
same,AUC 0-6 GLP-1 (active),[2]; [9],39.5 pmol·h/L
same,AUC 0-6 Insulin,[2]; [9],62.7 uU*h/ml
same,AUC 0-6 glucose,[2]; [9],606.2 mg·h/dL
same,GIP (peak),[2]; [9],117.9 pg/mL
same,GLP-1 (active) (peak),[2]; [9],7.9 pmol/L
same,Glucose (peak),[2]; [9],106.5 mg/dL
same,Insulin (peak),[2]; [9],16.2 uU/ml
same,"Time (h) to peak, GIP",[2]; [9],5 h
same,"Time (h) to peak, GLP-1 (active)",[2]; [9],2 h
same,"Time (h) to peak, glucose",[2]; [9],3 h
same,"Time (h) to peak, insulin",[2]; [9],3 h
